Results published in patent US10280159B2 (AbbVie Deutschland GmbH & Co. KG, priority 2015, dated 2019).
Counter-ions that a name gives are not always drawn.

How the values were obtained:
Type in all cases: cell-based
[1] = biological target: T1, human S1PR4 (Homo sapiens, UniProt O95977); assay: Intracellular Ca2+ release (FLIPR) agonist potency, S1P4; conditions: recombinant CHO-K1 cells expressing human S1PR4, aequorin, Gq/i5; Calcium 5 FLIPR; read-out: S1P4 EC50
T1 construct: host or cells: CHO-K1
T1 sequence (O95977 1-384): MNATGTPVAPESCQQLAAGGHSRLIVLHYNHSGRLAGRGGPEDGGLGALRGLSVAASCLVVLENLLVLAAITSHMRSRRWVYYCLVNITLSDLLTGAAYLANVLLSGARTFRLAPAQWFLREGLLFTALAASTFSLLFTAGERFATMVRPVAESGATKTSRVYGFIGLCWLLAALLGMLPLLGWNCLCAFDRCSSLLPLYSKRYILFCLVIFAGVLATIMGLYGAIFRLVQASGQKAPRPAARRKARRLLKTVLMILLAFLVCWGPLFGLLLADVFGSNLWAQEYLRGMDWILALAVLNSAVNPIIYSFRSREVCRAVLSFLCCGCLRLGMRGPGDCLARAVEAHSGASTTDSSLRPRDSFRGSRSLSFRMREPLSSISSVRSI
Method: (§1) Agonistic activity was measured using the method described below.
(§2) Intracellular Ca^2+ Release
(§3) Agonist potency and intrinsic activity was assessed by measurement of intracellular Ca^2+ release. Recombinant CHO-K1 cells (Euroscreen, Brussels, Belgium) expressing human S1PR5, S1PR1, S1PR3 or S1PR4 receptors, aequorin, and GTP binding protein Gq/i5 were cultured using a medium containing nutrient mixture F-12 Ham (Sigma-Aldrich) with 10% FBS, and 100 μg/mL gentamicin and equilibrated at 5% CO2.
(§4) Phospho-fingolimod was used as positive control. Antagonists were pre-incubated for 10 min with cells before addition of the agonist (phospho-fingolimod at EC80). Measurements were performed using a fluorometric imaging plate reader FLIPR®tetra (Molecular Devices). Agonist at the human S1P receptors were characterized by deducing EC50 (potency) values from a nonlinear fit to the measured fluorescence raw data after normalization to the reference agonist (phospho-fingolimod) curve.

[2] = biological target: T2, human S1PR5 (Homo sapiens, UniProt Q9H228); assay: Intracellular Ca2+ release (FLIPR) agonist potency, S1P5; conditions: recombinant CHO-K1 cells expressing human S1PR5, aequorin, Gq/i5; Calcium 5 FLIPR; read-out: S1P5 EC50 range
T2 construct: host or cells: CHO-K1
T2 sequence (Q9H228 whole entry): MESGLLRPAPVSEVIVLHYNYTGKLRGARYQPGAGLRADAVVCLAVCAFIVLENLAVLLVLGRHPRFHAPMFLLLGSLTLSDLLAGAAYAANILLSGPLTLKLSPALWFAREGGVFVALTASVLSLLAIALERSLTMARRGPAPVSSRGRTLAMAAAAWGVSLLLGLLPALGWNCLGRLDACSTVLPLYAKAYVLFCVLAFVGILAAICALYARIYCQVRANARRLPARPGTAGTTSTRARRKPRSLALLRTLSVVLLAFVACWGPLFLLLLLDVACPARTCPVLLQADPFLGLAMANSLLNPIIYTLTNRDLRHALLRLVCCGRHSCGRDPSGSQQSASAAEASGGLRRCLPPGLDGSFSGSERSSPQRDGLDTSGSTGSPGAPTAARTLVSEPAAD
Method: as §1, §2, §3, §4

[3] = biological target: T3, human S1PR1 (Homo sapiens, UniProt P21453); assay: Intracellular Ca2+ release (FLIPR) agonist potency, S1P1; conditions: recombinant CHO-K1 cells expressing human S1PR1, aequorin, Gq/i5; Calcium 5 FLIPR; read-out: S1P1 EC50
T3 construct: host or cells: CHO-K1
T3 sequence (P21453 whole entry): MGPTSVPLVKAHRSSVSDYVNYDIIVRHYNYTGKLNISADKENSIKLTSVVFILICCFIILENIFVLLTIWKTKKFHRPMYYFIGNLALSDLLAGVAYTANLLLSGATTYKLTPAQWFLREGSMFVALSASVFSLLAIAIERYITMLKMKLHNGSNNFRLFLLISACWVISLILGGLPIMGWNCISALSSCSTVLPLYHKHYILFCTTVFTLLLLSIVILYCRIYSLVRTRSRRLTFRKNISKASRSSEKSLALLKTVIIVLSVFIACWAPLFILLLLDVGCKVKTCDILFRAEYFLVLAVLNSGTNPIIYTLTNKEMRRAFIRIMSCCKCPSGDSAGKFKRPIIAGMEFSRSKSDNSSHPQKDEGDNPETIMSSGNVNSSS
Method: as §1, §2, §3, §4

| SMILES | EC50 [1] | EC50 [2] | EC50 [3] |
| --- | --- | --- | --- |
| O=C(O)COC1CCc2cc(OCc3cc(F)ccc3Cl)ccc2C1 (centres unmarked) [Compound 171, 2-[6-[(2-chloro-5-fluoro-phenyl)methoxy]tetralin-2-yl]oxyacetic acid] | > 1 µM | 1 to 10 µM | > 1 µM |
| O=C(O)C1CN(C2COc3cc(OCc4ccc(Cl)cc4)ccc3C2)C1 (centres unmarked) [Compound 46, 1-(7-((4-chlorobenzyl)oxy)chroman-3-yl)azetidine-3-carboxylic acid] | > 1 µM | 1 to 10 µM | > 1 µM |
| Cc1cccc(F)c1COc1ccc2c(c1)OCC(N1CC(C(=O)O)C1)C2 (centres unmarked) [Compound 53, 1-(7-((2-fluoro-6-methylbenzyl)oxy)chroman-3-yl)azetidine-3-carboxylic acid] | > 1 µM | 0.1 to 1 µM | > 1 µM |
| COc1cc(F)cc(COc2ccc3c(c2)OCC(N2CC(C(=O)O)C2)C3)c1 (centres unmarked) [Compound 100, 1-[7-[(3-fluoro-5-methoxy-phenyl)methoxy]chroman-3-yl]azetidine-3-carboxylic acid] | > 1 µM | 1 to 10 µM | > 1 µM |
| O=C(O)C12CC1CCN2C1CCc2cc(OCc3c(Cl)cccc3Cl)ccc2C1 (centres unmarked) [Compound 36, 2-(6-((2,6-dichlorobenzyl)oxy)-1,2,3,4-tetrahydronaphthalen-2-yl)-2-azabicyclo[3.1.0]hexane-1-carboxylic acid] | > 1 µM | 0.1 to 1 µM | > 1 µM |
| CN(CC(=O)O)C1COc2cc(OCc3ccc(OCc4cccc(Cl)c4)cc3)ccc2C1 (centres unmarked) [Compound 134, N-(7-((4-((3-chlorobenzyl)oxy)benzyl)oxy)chroman-3-yl)-N-methylglycine] | > 1 µM | < 0.01 µM | > 1 µM |
| O=C(O)C1CN(C2COc3cc(OCc4c(F)cccc4Cl)ccc3C2)C1 (centres unmarked) [Compound 61, 1-(7-((2-chloro-6-fluorobenzyl)oxy)chroman-3-yl)azetidine-3-carboxylic acid] | > 1 µM | 0.1 to 1 µM | > 1 µM |
| O=C(O)C1CN(C2COc3cc(OCc4ccc5cc(F)ccc5n4)ccc3C2)C1 (centres unmarked) [Compound 108, 1-[7-[(6-fluoro-2-quinolyl)methoxy]chroman-3-yl]azetidine-3-carboxylic acid] | > 1 µM | 1 to 10 µM | > 1 µM |
| CCc1cccc(Cl)c1COc1ccc2c(c1)OCC(N1CCC(C(=O)O)CC1)C2 (centres unmarked) [Compound 111, 1-[7-[(2-chloro-6-ethyl-phenyl)methoxy]chroman-3-yl]piperidine-4-carboxylic acid; Salt with 2,2,2-trifluoroacetic acid] | < 1 µM | < 0.01 µM | < 1 µM |
| COc1cccc(COc2ccc3c(c2)CCC(OCC(=O)O)C3)c1 (centres unmarked) [Compound 154, 2-[6-[(3-methoxyphenyl)methoxy]tetralin-2-yl]oxyacetic acid] | > 1 µM | 1 to 10 µM | > 1 µM |
| O=C(O)C1CN(C2COc3cc(OCc4ccccc4Cl)ccc3C2)C1 (centres unmarked) [Compound 63, 1-(7-((2-chlorobenzyl)oxy)chroman-3-yl)azetidine-3-carboxylic acid] | > 1 µM | 0.1 to 1 µM | > 1 µM |
| O=C(O)COC1CCc2cc(OCc3cc(C(F)(F)F)ccc3F)ccc2C1 (centres unmarked) [Compound 172, 2-[6-[[2-fluoro-5-(trifluoromethyl)phenyl]methoxy]tetralin-2-yl]oxyacetic acid] | > 1 µM | 1 to 10 µM | > 1 µM |
| O=C(O)C1CN(C2COc3cc(OCCCCOc4cccc(F)c4)ccc3C2)C1 (centres unmarked) [Compound 102, 1-[7-[4-(3-fluorophenoxy)butoxy]chroman-3-yl]azetidine-3-carboxylic acid] | > 1 µM | 1 to 10 µM | > 1 µM |
| O=C(O)COC1CCc2cc(OCc3ccccc3OC(F)(F)F)ccc2C1 (centres unmarked) [Compound 208, 2-[6-[[2-(trifluoromethoxy)phenyl]methoxy]tetralin-2-yl]oxyacetic] | > 1 µM | 0.1 to 1 µM | > 1 µM |
| O=C(O)CCOC1CCc2cc(OCc3ccccc3C(F)(F)F)ccc2C1 (centres unmarked) [Compound 178, 3-[6-[[2-(trifluoromethyl)phenyl]methoxy]tetralin-2-yl]oxypropanoic acid] |  | 1 to 10 µM | > 1 µM |
| CCCc1ccc(COc2ccc3c(c2)OCC(N2CC(C(=O)O)C2)C3)c(OC)c1 (centres unmarked) [Compound 148, 1-(7-((2-methoxy-4-propylbenzyl)oxy)chroman-3-yl)azetidine-3-carboxylic acid] | > 1 µM | 1 to 10 µM | > 1 µM |

| SMILES | EC50 [1] | EC50 [2] | EC50 [3] |
| --- | --- | --- | --- |
| O=C(O)CNC1COc2cc(-c3ccc(OCc4cccc(F)c4F)cc3)ccc2C1 (centres unmarked) [Compound 131, (7-(4-((2,3-difluorobenzyl)oxy)phenyl)chroman-3-yl)glycine] | > 1 µM | < 0.01 µM | < 1 µM |
| Cc1cccc(COc2ccc3c(c2)OCC(N2CC(C(=O)O)C2)C3)c1F (centres unmarked) [Compound 105, 1-[7-[(2-fluoro-3-methyl-phenyl)methoxy]chroman-3-yl]azetidine-3-carboxylic acid] | > 1 µM | 1 to 10 µM | > 1 µM |
| CCc1cccc(Cl)c1COc1ccc2c(c1)CCC(OCC(=O)O)C2 (single isomer, unassigned) [Compound 240] | > 1 µM | 0.01 to 0.1 µM | > 1 µM |
| COc1cccc(F)c1COc1ccc2c(c1)OCC(N1CC(C(=O)O)C1)C2 (centres unmarked) [Compound 101, 1-[7-[(2-fluoro-6-methoxy-phenyl)methoxy]chroman-3-yl]azetidine-3-carboxylic acid] | > 1 µM | 1 to 10 µM | > 1 µM |
| O=C(O)C1CN(C2CCOc3cc(OCc4c(Cl)cccc4Cl)c(F)cc32)C1 (centres unmarked) [Compound 223, 1-[7-[(2,6-dichlorophenyl)methoxy]-6-fluoro-chroman-4-yl]azetidine-3-carboxylic acid] | > 1 µM | < 0.01 µM | > 1 µM |
| O=C(O)COC1CCc2cc(OCc3cccc(Cl)c3)ccc2C1 (centres unmarked) [Compound 205, 2-[6-[(3-chlorophenyl)methoxy]tetralin-2-yl]oxyacetic acid] | > 1 µM | 0.1 to 1 µM | > 1 µM |
| O=C(O)C1CN(C2COc3cc(OCc4ccccc4F)ccc3C2)C1 (centres unmarked) [Compound 3, 1-(7-((2-fluorobenzyl)oxy)chroman-3-yl)azetidine-3-carboxylic acid] | > 1 µM | 1 to 10 µM | > 1 µM |
| O=C(O)CCOC1CCc2cc(OCc3ccccc3Cl)ccc2C1 (centres unmarked) [Compound 188, 3-[6-[(2-chlorophenyl)methoxy]tetralin-2-yl]oxypropanoic acid] | > 1 µM | 1 to 10 µM | > 1 µM |
| O=C(O)CCOC1CCc2cc(OCc3cccc(Cl)c3)ccc2C1 (centres unmarked) [Compound 187, 3-[6-[(3-chlorophenyl)methoxy]tetralin-2-yl]oxypropanoic acid] | > 1 µM |  | > 1 µM |
| O=C(O)CCOC1CCc2cc(OCc3cccc(C(F)(F)F)c3)ccc2C1 (centres unmarked) [Compound 193, 3-[6-[[3-(trifluoromethyl)phenyl]methoxy]tetralin-2-yl]oxypropanoic acid] | < 1 µM |  | > 1 µM |
| O=C(O)COC1CCc2cc(OCc3ccccc3F)ccc2C1 (centres unmarked) [Compound 215, 2-[6-[(2-fluorophenyl)methoxy]tetralin-2-yl]oxyacetic acid] |  | 1 to 10 µM | > 1 µM |
| O=C(O)C1CN(C2COc3cc(OCc4cccc(F)c4F)ccc3C2)C1 (centres unmarked) [Compound 51, 1-(7-((2,3-difluorobenzyl)oxy)chroman-3-yl)azetidine-3-carboxylic acid] | > 1 µM |  | > 1 µM |
| O=C(O)COC1CCc2cc(OCc3ccc(C(F)(F)F)cc3)ccc2C1 (centres unmarked) [Compound 202, 2-[6-[[4-(trifluoromethyl)phenyl]methoxy]tetralin-2-yl]oxyacetic acid] | > 1 µM |  | > 1 µM |
| O=C(O)C1CN(C2COc3cc(OCc4c(F)cccc4F)ccc3C2)C1 (centres unmarked) [Compound 60, 1-(7-((2,6-difluorobenzyl)oxy)chroman-3-yl)azetidine-3-carboxylic acid] | > 1 µM |  | > 1 µM |
| Cc1ccccc1COc1ccc2c(c1)CCC(OCC(=O)O)C2 (centres unmarked) [Compound 197, 2-[6-(o-tolylmethoxy)tetralin-2-yl]oxyacetic acid] | < 1 µM |  | > 1 µM |
| O=C(O)COC1CCc2cc(OCc3cc(Cl)ccc3C(F)(F)F)ccc2C1 (centres unmarked) [Compound 153, 2-[6-[[5-chloro-2-(trifluoromethyl)phenyl]methoxy]tetralin-2-yl]oxyacetic acid] |  |  | > 1 µM |
